Source: BindingDB's records for doi:10.1021/acschembio.6b00555 (University of Nebraska-Lincoln, 2016)

How the values were obtained:
Assay in all cases: Fluorescence Polarization Assay
Details in all cases: pH 7.35
[1] = molecular target: T1, Tyrosine-protein kinase transforming protein Src [144-247,E177Q,S178L,E179A,T180R,T181V,C186A,K201L] (Rous sarcoma virus subgroup B (strain Schmidt-Ruppin), UniProt P63185, C186A/E177Q/E179A/K201L/S178L/T180R/T181V)
T1 construct: 144-247
Protocol: (§1) Three fluorescein-labeled peptide probes, FITC-sulfopeptide, FITC-phosphopeptide, and FITC-tyrosinepeptide (FITC, fluorescein isothiocyanate), were used. Individual peptide probes were dissolved in assay buffer containing potassium phosphate (20 mM, pH 7.35), NaCl (100 mM), DTT (2 mM), and bovine gamma globulin (0.1%). Aliquots of the peptide probe solution were distributed to 96-well fluorescence plate to reach a final concentration of 10 nM. After the addition of indicated amounts of SH2 domain protein, the assay solutions were mixed and incubated at RT in the dark for 25 min. Fluorescence polarization experimentswere performed on a Synergy H1 plate reader (BioTek Instruments, Inc.) equipped with standard filter cube (λEx = 485 nm, BP = 20 nm; λEm = 528 nm, BP = 20 nm). A standard sample layout in a 96-well plate was designed so that a single plate contains all the samples for one SH2 domain variant. Triplicate samples at each protein concentration were arrayed in the plat

[2] = molecular target: T2, Tyrosine-protein kinase transforming protein Src [144-247,E177R,S178L,E179Q,T180R,T181V,C186A,K201L] (Rous sarcoma virus subgroup B (strain Schmidt-Ruppin), UniProt P63185, C186A/E177R/E179Q/K201L/S178L/T180R/T181V)
T2 construct: 144-247
Protocol: as §1

[3] = molecular target: T3, Tyrosine-protein kinase transforming protein Src [144-247,T181V,C186A,K201L] (Rous sarcoma virus subgroup B (strain Schmidt-Ruppin), UniProt P63185, C186A/K201L/T181V)
T3 construct: 144-247
Protocol: as §1

[4] = molecular target: T4, Tyrosine-protein kinase transforming protein Src [144-247] (Rous sarcoma virus subgroup B (strain Schmidt-Ruppin), UniProt P00524)
T4 construct: 144-247
Protocol: as §1

T1 sequence (P63185 144-247 E176Q/S177L/E178A/T179R/T180V/C185A/K200L): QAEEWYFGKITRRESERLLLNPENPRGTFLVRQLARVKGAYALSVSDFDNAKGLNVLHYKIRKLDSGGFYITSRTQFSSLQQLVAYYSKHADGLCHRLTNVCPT
T4 sequence (P00524 144-247): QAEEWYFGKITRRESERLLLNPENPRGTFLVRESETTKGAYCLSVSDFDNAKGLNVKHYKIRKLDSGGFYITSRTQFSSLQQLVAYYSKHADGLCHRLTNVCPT
T3 sequence (P63185 144-247 T180V/C185A/K200L): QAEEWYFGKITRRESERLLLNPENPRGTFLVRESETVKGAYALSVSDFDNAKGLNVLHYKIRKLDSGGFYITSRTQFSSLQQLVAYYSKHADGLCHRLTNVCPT
T2 sequence (P63185 144-247 E176R/S177L/E178Q/T179R/T180V/C185A/K200L): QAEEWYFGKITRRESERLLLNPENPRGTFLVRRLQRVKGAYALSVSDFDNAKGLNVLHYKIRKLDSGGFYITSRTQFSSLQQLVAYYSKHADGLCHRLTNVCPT

SMILES | Kd [1] [nM] | Kd [2] [nM] | Kd [3] [nM] | Kd [4] [nM]
N[C@@H](Cc1ccc(OP(=O)(O)O)cc1)C(=O)O [Phosphotyrosine (pTyr)] | 7.7 | 2.5 | 4.9 | 61
N[C@@H](Cc1ccc(OS(=O)(=O)O)cc1)C(=O)O [Sulfotyrosine (sTyr)] | 10.4 | 5.6 | 349 | 9620
